In patent US11261175B2 (priority 2017, dated 2022):

Assays:
Format in all cases: cell-based
[1] = test system: HCV replicon NK5.1-Gluc (genotype 1b); assay: Anti-HCV activity using HCV replicon NK5.1-Gluc (genotype 1b) in Huh 7.5.1 cells, luciferase readout; details: Hepatitis C virus, 72 h; Huh 7.5.1 cells with NK5.1-Gluc replicon, 3 days, Gaussia luciferase; read-out: HCV wt. GT-1b
[2] = test system: JFH5a-Rluc-ad34 virus (HCV GT-2a); assay: Anti-HCV activity using HCVcc (JFH5a-Rluc-ad34 virus) in Huh 7.5.1 cells, Renilla luciferase readout; details: Hepatitis C virus, GT2A, Huh-7.5.1, 72 h, read-out: HCV wt. GT-2a
In short: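 Huh 7.5.1 cells were inoculated with JFH5a-Rluc-ad34, a JFH1-derived virus with adaptive E2/p7 mutations, for 4 h before serially diluted compound was added. Intracellular Renilla luciferase was read after three days and normalized to mock-treated controls.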

[3] = test system: HCV replicon S52-Feo (genotype 3a); assay: Anti-HCV activity using HCV replicon S52-Feo (genotype 3a) in Huh 7.5.1 cells, luciferase readout; details: Hepatitis C virus, 72 h; Huh 7.5.1 cells with S52-Feo replicon, 3 days, firefly luciferase; read-out: HCV wt. GT-3a
[4] = test system: HCV genotype 1b replicon with NS5A L31V mutation; assay: Transiently transfected assay of genotype 1b resistance mutant RNA L31V; details: Hepatitis C virus, Huh-7.5.1, 72 h, read-out: HCV Mutation L31V
In short: (§1)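 Huh7.5.1 cells were electroporated with in vitro-transcribed, ScaI-linearized replicon RNAs carrying the Daclatasvir-resistance substitutions, then seeded 4 h later into DMEM with serially diluted compound. After 3 days, intracellular luciferase activity was read and normalized to mock-treated cells.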

[5] = test system: HCV genotype 1b replicon with NS5A Y93H mutation; assay: Transiently transfected assay of genotype 1b resistance mutant RNA Y93H; details: Hepatitis C virus, Huh-7.5.1, 72 h, read-out: HCV Mutation Y93H
In short: as §1

[6] = test system: HCV genotype 1b replicon with NS5A L31V+Y93H (double mutant); assay: Transiently transfected assay of genotype 1b resistance mutant RNA L31V+Y93H (double mutant); details: Hepatitis C virus, Huh-7.5.1, 72 h, read-out: HCV Mutation L31V + Y93H
In short: as §1

Compound: CCCCC1(CCCC)c2cc(NC(=O)[C@@H]3C[C@H](O)CN3C(=O)[C@H](NC(=O)OC)c3ccccc3)ccc2-c2ccc(NC(=O)[C@@H]3C[C@H](O)CN3C(=O)[C@H](NC(=O)OC)c3ccccc3)cc21 [Example 35, dimethyl (1R,1′R)-2,2′-((3S,3′S,5S,5′S)-5,5′-(9,9-dibutyl-9H-fluorene-2,7-diyl)bis(azanediyl)bis(oxomethylene)bis(3-hydroxypyrrolidine-5,1-diyl))bis(2-oxo-1-phenylethane-2,1-diyl)dicarbamate]
- EC50 [1]: 0.01 to 0.1 nM
- EC50 [2]: 1 to 100 nM
- EC50 [3]: 0.01 to 0.1 nM
- EC50 [4]: 0.001 to 0.01 nM
- EC50 [5]: 0.1 to 1 nM
- EC50 [6]: 1 to 100 nM

Compound: COC(=O)N[C@H](C(=O)N1CCC[C@@H]1C(=O)Nc1ccc2c(c1)C(CCCCC(F)(F)F)(CCCCC(F)(F)F)c1cc(NC(=O)[C@@H]3CCCN3C(=O)[C@H](NC(=O)OC)c3ccccc3)ccc1-2)c1ccccc1 [Example 5, methyl ((R)-2-((S)-2-((7-((R)-1-((S)-2-((methoxycarbonyl)amino)-2-phenylacetyl)pyrrolidine-2-carboxyamido)-9,9-bis(5,5,5-trifluoropentyl)-9H-fluorene-2-yl)carbamoyl)pyrrolidine-1-yl)-2-oxo-1-phenylethyl)carbamate]
- EC50 [1]: 0.001 to 0.01 nM
- EC50 [2]: 1 to 100 nM
- EC50 [3]: 0.01 to 0.1 nM
- EC50 [4]: 0.1 to 1 nM
- EC50 [5]: > 100 nM
- EC50 [6]: > 100 nM

Compound: CCC1(CC)c2cc(NC(=O)[C@@H]3CCCN3C(=O)[C@H](NC(=O)OC)c3ccccc3)ccc2-c2ccc(NC(=O)[C@@H]3CCCN3C(=O)[C@H](NC(=O)OC)c3ccccc3)cc21 [Example 30, dimethyl (1R,1′R)-2,2′-((2S,2′S)-2,2′-(9,9-diethyl-9H-fluorene-2,7-diyl)bis(azanediyl)bis(oxomethylene)bis(pyrrolidine-2,1-diyl))bis(2-oxo-1-phenylethane-2,1-diyl)dicarbamate]
- EC50 [1]: 0.01 to 0.1 nM
- EC50 [2]: 0.1 to 1 nM
- EC50 [3]: 0.1 to 1 nM
- EC50 [4]: 0.1 to 1 nM
- EC50 [5]: 1 to 100 nM
- EC50 [6]: > 100 nM

Compound: COC(=O)N[C@@H](C(=O)N1CCC[C@H]1C(=O)Nc1ccc2c(c1)C(CCCC(F)(F)F)(CCCC(F)(F)F)c1cc(NC(=O)[C@@H]3CCCN3C(=O)[C@H](NC(=O)OC)c3ccccc3)ccc1-2)c1ccccc1 [Example 4, dimethyl ((1R,1′R)-((2S,2′S)-(((9,9-bis(4,4,4-trifluorobutyl)-9H-fluorene-2,7-diyl)bis(azanediyl))bis(carbonyl))bis(pyrrolidine-2,1-diyl))bis(2-oxo-1-phenylethane-2,1-diyl))dicarbamate]
- EC50 [1]: 0.001 to 0.01 nM
- EC50 [2]: 1 to 100 nM
- EC50 [3]: 0.01 to 0.1 nM
- EC50 [4]: 0.1 to 1 nM
- EC50 [5]: > 100 nM
- EC50 [6]: 1 to 100 nM

Compound: CCCCCC1(CCCCC)c2cc(NC(=O)[C@@H]3CCCN3C(=O)[C@H](NC(=O)OC)c3ccccc3)ccc2-c2ccc(NC(=O)[C@@H]3CC4(CN3C(=O)[C@H](NC(=O)OC)c3ccccc3)OCCO4)cc21 [Example 12, methyl ((R)-2-((S)-2-((7-((S)-7-((R)-2-((methoxycarbonyl)amino)-2-phenylacetyl)-1,4-dioxa-7-azaspiro[4.4]nonane-8-carboxamido)-9,9-dipentyl-9H-fluorene-2-yl)carbamoyl)pyrrolidine-1-yl)-2-oxo-1-phenylethyl)carbamate]
- EC50 [1]: 0.001 to 0.01 nM
- EC50 [2]: 1 to 100 nM
- EC50 [3]: 0.01 to 0.1 nM
- EC50 [4]: 0.001 to 0.01 nM
- EC50 [5]: 0.1 to 1 nM
- EC50 [6]: 1 to 100 nM

Compound: CCCCC1(CCCC)c2cc(NC(=O)[C@@H]3C[C@@H](O)CN3C(=O)[C@H](NC(=O)OC)c3ccccc3)ccc2-c2ccc(NC(=O)[C@@H]3C[C@H](COC)CN3C(=O)[C@H](NC(=O)OC)c3ccccc3)cc21 [Example 38, methyl ((R)-2-((2S,4S)-2-((9,9-dibutyl-7-((2S,4R)-4-hydroxy-1-((R)-2-((methoxycarbonyl)amino)-2-phenylacetyl)pyrrolidine-2-carboxyamido)-9H-fluorene-2-yl)carbamoyl)-4-(methoxymethyl)pyrrolidine-1-yl)-2-oxo-1-phenylethyl)carbamate]
- EC50 [1]: 0.01 to 0.1 nM
- EC50 [2]: 0.1 to 1 nM
- EC50 [3]: 0.01 to 0.1 nM
- EC50 [4]: 0.001 to 0.01 nM
- EC50 [5]: 0.001 to 0.01 nM
- EC50 [6]: 0.01 to 0.1 nM

Compound: CCCCC1(CCCC)c2cc(NC(=O)[C@@H]3CC4(CC4)CN3C(=O)[C@H](NC(=O)OC)c3ccccc3)ccc2-c2ccc(NC(=O)[C@@H]3CC4(CC4)CN3C(=O)[C@H](NC(=O)OC)c3ccccc3)cc21 [Example 21, dimethyl ((1R,1′R)-((6S,6′S)-(((9,9-dibutyl-9H-fluorene-2,7-diyl)bis(azanediyl))bis(carbonyl))bis(5-azaspiro[2.4]heptane-6,5-diyl))bis(2-oxo-1-phenylethane-2,1-diyl))dicarbamate]
- EC50 [1]: 0.001 to 0.01 nM
- EC50 [2]: 0.1 to 1 nM
- EC50 [3]: 0.01 to 0.1 nM
- EC50 [4]: 0.01 to 0.1 nM
- EC50 [5]: 1 to 100 nM
- EC50 [6]: 1 to 100 nM

Compound: CCCCC1(CCCC)c2cc(NC(=O)[C@@H]3C[C@H](COC)CN3C(=O)[C@H](NC(=O)OC)c3ccccc3)ccc2-c2ccc(-c3cnc([C@@H]4CCCN4C(=O)[C@@H](NC(=O)OC)C(C)C)[nH]3)cc21 [Example 42, methyl ((S)-1-((S)-2-(5-(9,9-dibutyl-7-((2S,4S)-1-((R)-2-((methoxycarbonyl)amino)-2-phenylacetyl)-4-(methoxymethyl)pyrrolidine-2-carboxyamido)-9H-fluorene-2-yl)-1H-imidazole-2-yl)pyrrolidine-1-yl)-3-methyl-1-oxobutane-2-yl)carbamate]
- EC50 [1]: 0.01 to 0.1 nM
- EC50 [2]: 0.1 to 1 nM
- EC50 [3]: 0.1 to 1 nM
- EC50 [4]: 0.001 to 0.01 nM
- EC50 [5]: 0.01 to 0.1 nM
- EC50 [6]: 1 to 100 nM
